These results are taken from publication PMC2661369, “The Signal Peptide of Staphylococcus aureus Panton Valentine Leukocidin LukS Component Mediates Increased Adhesion to Heparan Sulfates” (PLoS ONE, 2009).

Data set [1] deals with Panton Valentine Leukocidin. Briefly: Quantification of Panton Valentine Leukocidin production by ELISA. It is filed as cell-based, Staphylococcus aureus. To be noted: supernatant after 24 h of culture, mean±SD, in duplicate. The method, then: The level of PVL production in the supernatant after 24 h of staphylococcal culture was determined in duplicate by using an ELISA method as described previously.
The level of PVL production in the supernatant after 24h of culture was determined in duplicate by using an ELISA method as described previously.
A general note: In an ELISA, binding on a coated surface is turned into a signal by an enzyme label.

For data set [2], the system named is ECM components. Format: cell-based, Staphylococcus aureus. To be noted: constructs expressed in LUG960 (RN6390 in b7), P-luk-PV promoter; ECM proteins 5 µg/mL, absorbance at 540 nm.
Data set [3] is classed as physicochemical. To be noted: purified synthetic peptide. The text has this: To gain insight into the structure and lipotropic properties of the LukS-PV and LukF-PV signal peptides, the solubility and conformation of the corresponding purified synthetic peptides were examined under various stabilizing conditions by using either cosolvents (TFE: water mixtures, SDS) that are very useful tools for probing the propensity of peptides for secondary structure formation ([11], [12], and references therein), or membrane mimetic media including lysolipid (lysophosphatidyl choline, LPC), and detergents (DM, LPC and DPC). […] TFE is known to solubilize hydrophobic peptides as monomers and to stabilize the folding of peptidic sequences with an intrinsic propensity to adopt an α-helical structure. […] Various CD deconvolution methods used indicate a predominant α-helix content ranging from 64 to 77% in SDS and in TFE 50% for LukS-PV signal peptide, but only of about 40% for LukF-PV signal peptide in both media. […] These findings are consistent with the computer prediction that this peptide could easily aggregate (score of 0.8 with Zyggregator [13]). […] Taken together, these analyses indicate that after its processing by the signal peptidase, the LukS-PV signal peptide could readily leave the membrane translocon context and incorporate to the cytosolic or the extracellular aqueous environment.

Data set [4] relates to matrix protein. Briefly: Effect of heparinase III digestion of ECM proteins on bacterial adhesion. It is filed as cell-based, Staphylococcus aureus. To be noted: increasing concentrations added to coated wells, 1 h at room temperature, before adhesion assay. The procedure: Figure 4 Inhibition of adhesion to collagen IV by heparinase. Isogenic strains of Staphylococcus aureus examined for their binding capacity (Y-axis, absorbance reading at 540 nm) to collagen IV (Sigma) coated on 96-well plates, at concentrations of 5 µg/mL. Heparinase III was added at increasing concentrations (X-axis) to collagen IV (Sigma) before the adhesion assay. Parental (LUG960) indicates the genetic background in which the genetic modifications were made; LukS-PV SP, parental carrying a plasmid encoding the LukS-PV signal peptide. The vertical lines indicate the standard deviations.
To test the effect of digestion of ECM proteins with heparinase, increasing concentrations of heparinase III (Sigma) were added to laminin, elastin and type V, IV, I collagens (Sigma) coated wells, and incubated for 1 h at room temperature. After treatment, the wells were washed with 200 µL PBS 3 times, blocked with 200 µL of 0.2% BSA in PBS at 4°C for 2 h, and used in the adhesion assay.

Where no end group is shown, it is not given here.

Regarding “LukS-PV ΔSP: plasmid encoding LukS-PV without signal peptide (MVKKRLLAATLSLGIITPIATSFHESKA)”, the PVL levels in data set [1] is listed as 2.39 ± 0.04 µg/mL. Further, the “adhesion phenotype of expressing strain” value in data set [2] was “basal level of attachment”. As for “MVKKRLLAATLSLGIITPIATSFHESKA [LukS-PV signal peptide]”, in data set [3], the solubility in water result is “largely soluble in water”.

B1: heparinase III: heparinase III (Sigma) (protein, UniProt Q59289 25-659, looked up)
Heparin-sulfate lyase: QSSSITRKDFDHINLEYSGLEKVNKAVAAGNYDDAAKALLAYYREKSKAREPDFSNAEKPADIRQPIDKVTREMADKALVHQFQPHKGYGYFDYGKDINWQMWPVKDNEVRWQLHRVKWWQAMALVYHATGDEKYAREWVYQYSDWARKNPLGLSQDNDKFVWRPLEVSDRVQSLPPTFSLFVNSPAFTPAFLMEFLNSYHQQADYLSTHYAEQGNHRLFEAQRNLFAGVSFPEFKDSPRWRQTGISVLNTEIKKQVYADGMQFELSPIYHVAAIDIFLKAYGSAKRVNLEKEFPQSYVQTVENMIMALISISLPDYNTPMFGDSWITDKNFRMAQFASWARVFPANQAIKYFATDGKQGKAPNFLSKALSNAGFYTFRSGWDKNATVMVLKASPPGEFHAQPDNGTFELFIKGRNFTPDAGVFVYSGDEAIMKLRNWYRQTRIHSTLTLDNQNMVITKARQNKWETGNNLDVLTYTNPSYPNLDHQRSVLFINKKYFLVIDRAIGEATGNLGVHWQLKEDSNPVFDKTKNRVYTTYRDGNNLMIQSLNADRTSLNEEEGKVSYVYNKELKRPAFVFEKPKKNAGTQNFVSIVYPYDGQKAPEISIRENKGNDFEKGKLNLTLTINGKQQLVLVP
B1: the “effect of heparinase on bacterial adhesion” value in data set [4] is listed as “the bacterial adhesion decreased in a dose-dependent manner”.
